Laboratory results taken from patent US20120184562A1, “1,6- AND 1,8-NAPHTHYRIDINES” (priority 2011, published 2012).
Where a name gives a salt, the structure may show the parent alone.

Key:
Human DYRK1B = biological target: T1, Human DYRK1B (Homo sapiens, UniProt Q9Y463); assay: DYRK1B Kinase TR-FRET (IMAP-Tb) Assay; type: biochemical; conditions: TR-FRET (IMAP-Tb); ATP 70 μM; 37° C., 60 minutes; average of multiple runs; read-out: Enzyme IC50 (μM) DYRK1B
T1 construct: purchased Invitrogen PR8350B (former PV4649)
From the text: DYRK1B Kinase TR-FRET (IMAP-Tb) Assay The kinase TR-FRET (IMAP-Tb) assay uses a fluorescence labeled substrate peptide in the kinase reaction. Upon phosphorylation by the kinase, phosphopeptide is produced, which will be detected by the binding solution provided in IMAP TR-FRET binding kit. After the completion of the kinase reaction, the reaction will be stopped by adding the binding solution containing terbium tracer. This tracer is immobilized on the surface of the IMAP beads, which also contain metal ions on the beads that bind to the phospho-groups of the products. Thus the phosphorylated product of the reaction can enter into close proximity to the tracer, producing resonance energy transfer. Due to the long lifetime of terbium (Tb) fluorescence the detection can be run in time resolved mode, which virtually eliminates fluorescence interference from assay components or compounds. The TR-FRET signal measurement from this assay, given as an IC50 measurement, is a measure of a test compound's ability to interfere with the phosphorylation of the peptide substrate, that is it inhibits the phosphorylation of the substrate peptide by DYRK1B, and is thus a measure of the test compound's ability to inhibit the activity of DYRK1B. […] Human DYRK1B: from Invitrogen. Part #PR8350B (former PV4649) • 2. Substrate Peptide: in-house synthesized: RRRFRPASPLRGPPK • 3. IMAP TR-FRET IPP Explorer Kit: from Molecular Devices. Part #R8157 • 4. Kinase Assay Buffer (KAB): 10 mM HEPES pH 7.0, 50 mM NaCl, 5 mM MgCl2, 1 mM DTT, 1 mM NaVO4, 200 μg/mL BSA (0.02%) • 5. Assay Plate: Remp polypropylene clear 384-well microplate. Cat#23490-102 • 6. Detection Plate: Costa black 384-well microplate. Cat #3710 Assay Procedure: This assay was performed as follows: • 1. Transfer 1.5 μL of 20× compound solution to each well of an assay plate. • 2. Add to each well 22.5 μL of KAB Buffer. • 3. Add to each well 3 μL of the solution of DYRK1B and ATP. […] Add to each well 3 μL of the substrate peptide. The assay concentration is 1.0 μM • 5. Incubate the assay plates at 37° C. for 60 minutes. • 6. Add 18 μL of Detection Solution (1:800 diluted Progress bead stock, 1:400 diluted Tb stock, 80% Buffer A, and 20% Buffer B) into each well of detection plates. • 7. Transfer 6 μL of assay solution from the assay plate to the detection plate. • 8. Shake detection plates for 30 minutes. • 9. Read plates in Envision with wavelength set at excitation 340 nm for Tb, emission 490 nm, and […] 520 nm. • 10. Calculation: TR-FRET Signal=(Reading at […]/Reading at 490 nM)×2000000

Human DYRK1A = biological target: T2, Human DYRK1A (Homo sapiens, UniProt Q13627); assay: DYRK1A Kinase TR-FRET (IMAP-Tb) Assay; type: biochemical; conditions: TR-FRET (IMAP-Tb); ATP 70 μM; 37° C., 60 minutes; average of multiple runs; read-out: Enzyme IC50 (μM) DYRK1A
T2 construct: purchased Invitrogen PV3997
From the text: DYRK1A Kinase TR-FRET (IMAP-Tb) Assay
The kinase TR-FRET (IMAP-Tb) assay uses a fluorescence labeled substrate peptide in the kinase reaction. Upon phosphorylation by the kinase, phosphopeptide is produced, which will be detected by the binding solution provided in IMAP TR-FRET binding kit. After the completion of the kinase reaction, the reaction will be stopped by adding the binding solution containing terbium tracer. This tracer is immobilized on the surface of the IMAP beads, which also contain metal ions on the beads that bind to the phospho-groups of the products. Thus the phosphorylated product of the reaction can enter into close proximity to the tracer, producing resonance energy transfer. Due to the long lifetime of terbium (Tb) fluorescence the detection can be run in time resolved mode, which virtually eliminates fluorescence interference from assay components or compounds.
The TR-FRET signal measurement from this assay, given as an IC50 measurement, is a measure of a test compound's ability to interfere with the phosphorylation of the peptide substrate, that is it inhibits the phosphorylation of the substrate peptide by DYRK1A, and is thus a measure of the test compound's ability to inhibit the activity of DYRK1A.
• 1. Human DYRK1A: from Invitrogen. Part #PV3997 • 2. Substrate Peptide: […] • 3. IMAP TR-FRET IPP Explorer Kit: from Molecular Devices. Part #R8157 • 4. Kinase Assay Buffer (KAB): 10 mM HEPES pH 7.0, 50 mM NaCl, 5 mM MgCl2, 1 mM DTT, 1 mM NaVO4, 200 μg/mL BSA (0.02%) • 5. Assay Plate: Remp polypropylene clear 384-well microplate. […] Detection Plate: Costa black 384-well microplate. […] Transfer 1.5 μL of 20× compound solution to each well of an assay plate. • 2. Add to each well 22.5 μL of KAB Buffer. • 3. Add to each well 3 μL of the solution of DYRK1A and ATP. […] Add to each well 3 μL of the substrate peptide. The assay concentration is 1.0 μM • 5. Incubate the assay plates at 37° C. for 60 minutes. • 6. Add 18 μL of Detection Solution (1:800 diluted Progress bead stock, 1:400 diluted Tb stock, 80% Buffer A, and 20% Buffer B) into each well of detection plates. • 7. Transfer 6 μL of assay solution from the assay plate to the detection plate. • 8. Shake detection plates for 30 minutes. • 9. Read plates in Envision with wavelength set at excitation 340 nm for Tb, emission 490 nm, and […].

[1] = test system: SW620 human colon cancer cells; assay: SW620 Cell Viability Assay; type: cell-based; conditions: SW-620, 96 h, 4 days incubation, CellTiter-Glo Luminescent Cell Viability Assay, read-out: Cellular EC50 (μM) SW620
Procedure: SW620 Cell Viability Assay
1. Cell Plate Preparation: SW620 human colon cancer cells (known to express DYRK1B), obtained from ATCC, were seeded into 96-well plates at 3×10^3 cells/well in 50 μL of media. • Harvested the required number of cells (counts & viability determined by Guava Viacount). • Centrifuge cells to pellet and removed supernant. • Resuspended in growth media (50 μL/well) & pipetted thoroughly to break up clumps. • Setup for ˜100 wells/plate, therefore, VT=5 mL/plate @ […]. 1A. Some cells (S—) were allowed to attach for 24 hrs, serum starved for 48 hrs, and then followed with drug treatments. Test compound solution were prepared in regular corresponding media supplemented with serum. 2. Test Compound Preparation: Test compounds were solubilized in either DMSO or media and prepared at various stock concentrations. • All compounds were incubated at 37° C. for 30 minutes and vortexed. • (5 mM stocks of test compound were prepared for non-soluble compounds)
• The 10 mM test compound stock was diluted to a concentration of 100× the final Cmax concentration. • Then the test compound stock is diluted 50-fold in media and/or second compound for a final Cmax concentration in the test compound plate. • The Cmax in the test compound plate (2% DMSO) is 2-fold higher than the final Cmax in the cell plate (60 uL titrations were 1:3). 4. Viability Assay: This assay was performed as follows: • Transfer 50 μL of test compound solution per well from the test compound plate onto the cell plate prepared in Step #1. • Mix the plate with treated cells by pipetting up and down three times with 200 μL multi-channel pipette. • Incubate the cells in 5% CO2 incubator @ 37° C. for 4 days. • Run the CellTiter-Glo™ Luminescent Cell Viability Assay.
The results of this assay, given as EC50 values, indicate the concentration of test compound that inhibits tumor cell proliferation by 50%.

T1 sequence (Q9Y463 whole entry): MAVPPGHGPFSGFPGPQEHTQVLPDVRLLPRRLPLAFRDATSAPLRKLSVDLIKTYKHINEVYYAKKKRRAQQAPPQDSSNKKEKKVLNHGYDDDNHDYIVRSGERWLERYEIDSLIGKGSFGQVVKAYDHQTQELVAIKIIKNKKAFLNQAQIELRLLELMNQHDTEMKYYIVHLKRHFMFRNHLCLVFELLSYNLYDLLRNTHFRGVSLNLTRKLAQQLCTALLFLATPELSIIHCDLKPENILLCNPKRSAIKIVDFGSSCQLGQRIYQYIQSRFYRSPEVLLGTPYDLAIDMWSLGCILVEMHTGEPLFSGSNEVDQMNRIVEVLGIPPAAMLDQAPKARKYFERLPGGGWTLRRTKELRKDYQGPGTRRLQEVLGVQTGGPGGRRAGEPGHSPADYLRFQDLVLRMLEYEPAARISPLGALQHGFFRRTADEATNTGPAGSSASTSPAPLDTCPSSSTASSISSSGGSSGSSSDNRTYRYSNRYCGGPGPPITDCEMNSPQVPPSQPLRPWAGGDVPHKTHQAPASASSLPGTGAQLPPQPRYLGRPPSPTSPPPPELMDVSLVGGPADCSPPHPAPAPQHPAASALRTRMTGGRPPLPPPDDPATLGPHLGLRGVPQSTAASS

Compound | IC50 (Human DYRK1B) [µM] | IC50 (Human DYRK1A) [µM] | EC50 [1] [µM]
COc1cc2[nH]c(=O)c(C(=O)Nc3cc(C(=O)NC(CN)c4ccsc4)ccc3C)cc2cn1 (stereo not drawn) [Example 59, 7-Methoxy-2-oxo-1,2-dihydro-[1,6]naphthyridine-3-carboxylic acid [5-(2-amino-1-thiophen-3-yl-ethylcarbamoyl)-2-methyl-phenyl]-amide; hydrochloride] | 0.0308 | 0.0113 | 0.299
COc1cc2[nH]c(=O)c(C(=O)Nc3cc(C(=O)NC(CCN)c4ccccc4)ccc3C)cc2cn1 (stereo not drawn) [Example 61, 7-Methoxy-2-oxo-1,2-dihydro-[1,6]naphthyridine-3-carboxylic acid [5-(3-amino-1-phenyl-propylcarbamoyl)-2-methyl-phenyl]-amide; hydrochloride] | 0.155 | 0.034 | 2.27
COc1cc2[nH]c(=O)c(C(=O)Nc3cc(C(=O)NC(CCN)c4ccsc4)ccc3C)cc2cn1 (stereo not drawn) [Example 63, 7-Methoxy-2-oxo-1,2-dihydro-[1,6]naphthyridine-3-carboxylic acid [5-(3-amino-1-thiophen-3-yl-propylcarbamoyl)-2-methyl-phenyl]-amide] | 0.023 | 0.0046 | 0.205
COc1cc2[nH]c(=O)c(C(=O)Nc3cc(C(=O)NC(CCN)c4cccc(Cl)c4)ccc3C)cc2cn1 (stereo not drawn) [Example 65, 7-Methoxy-2-oxo-1,2-dihydro-[1,6]naphthyridine-3-carboxylic acid {5-[3-amino-1-(3-chloro-phenyl)-propylcarbamoyl]-2-methyl-phenyl}-amide; hydrochloride] | 0.21 | 0.0974 | 0.915
COc1cc2[nH]c(=O)c(C(=O)Nc3cc(C(=O)NC(CCN)c4cccc(Cl)c4)ccc3Cl)cc2cn1 (stereo not drawn) [Example 67, 7-Methoxy-2-oxo-1,2-dihydro-[1,6]naphthyridine-3-carboxylic acid {5-[3-amino-1-(3-chloro-phenyl)-propylcarbamoyl]-2-chloro-phenyl}-amide; hydrochloride] | 0.0854 | 0.00952 | 0.103
COc1cc2[nH]c(=O)c(C(=O)Nc3cc(C(=O)NC(CCN)c4ccccc4)ccc3Cl)cc2cn1 (stereo not drawn) [Example 69, 7-Methoxy-2-oxo-1,2-dihydro-[1,6]naphthyridine-3-carboxylic acid [5-(3-amino-1-phenyl-propylcarbamoyl)-2-chloro-phenyl]-amide; hydrochloride] | 0.0137 | 0.0124 | 0.256
COC(=O)c1ccc(Cl)c(NC(=O)c2cc3cnc(N4CCN(C)CC4)cc3[nH]c2=O)c1 [Example 73, 4-Chloro-3-{[7-(4-methyl-piperazin-1-yl)-2-oxo-1,2-dihydro-[1,6]naphthyridine-3-carbonyl]-amino}-benzoic acid methyl ester] | 0.96 | 0.425 | > 10
COC(=O)c1ccc(Cl)c(NC(=O)c2cc3ccc(N4CCN(C)CC4)nc3[nH]c2=O)c1 [Example 88, 4-Chloro-3-{[7-(4-methyl-piperazin-1-yl)-2-oxo-1,2-dihydro-[1,8]naphthyridine-3-carbonyl]-amino}-benzoic acid methyl ester] | 0.513 | 0.451 | 1.53
COC(=O)c1ccc(Cl)c(NC(=O)c2cc3ccc(OC)nc3[nH]c2=O)c1 [Example 90, 4-Chloro-3-[(7-methoxy-2-oxo-1,2-dihydro-[1,8]naphthyridine-3-carbonyl)-amino]-benzoic acid methyl ester] | 0.168 | > 10 | > 10
COc1ccc2cc(C(=O)Nc3cc(C(=O)NCc4cccc(Cl)c4)ccc3Cl)c(=O)[nH]c2n1 [Example 95, N-(2-Chloro-5-(3-chlorobenzylcarbamoyl)phenyl)-7-methoxy-2-oxo-1,2-dihydro-1,8-naphthyridine-3-carboxamide] | 0.047 | 0.019 | 1.24
COc1ccc2cc(C(=O)Nc3cc(C(=O)NCc4cccc(Cl)c4)ccc3C)c(=O)[nH]c2n1 [Example 99, N-(5-(3-Chlorobenzylcarbamoyl)-2-methylphenyl)-7-methoxy-2-oxo-1,2-dihydro-1,8-naphthyridine-3-carboxamide] | 0.235 | 0.123 | > 10
COc1ccc2cc(C(=O)Nc3cc(C(=O)NC(CCN)c4ccccc4)ccc3Cl)c(=O)[nH]c2n1 (stereo not drawn) [Example 101, N-(5-(3-Amino-1-phenylpropylcarbamoyl)-2-chlorophenyl)-7-methoxy-2-oxo-1,2-dihydro-1,8-naphthyridine-3-carboxamide] | 0.0527 | 0.0392 | 0.0273
